Patent publication US20180078498A1, “Microneedle Patch for Delivering an Active Ingredient to Skin” (LEO Pharma A/S, priority 2015, published 2018)

Assay: Testing of biodegradable polymers as microneedle matrix (physical stability, release, chemical stability of active ingredient)
Type: physicochemical
Protocol: In the course of research leading to the present invention, a large number of different biodegradable polymers were tested for their suitability to form a matrix from which the microneedles could be made.

chemical stability of calcipotriol (ester-terminated polylactide, polyglycolide or polylactide co-glycolide as the biodegradable polymer): chemically stable | chemical stability of calcipotriol (in a matrix of polylactic acid, polyglycolic acid or polylactic co-glycolic acid): not chemically stable
SMILES: C=C1/C(=C\C=C2/CCC[C@]3(C)[C@@H]([C@H](C)/C=C/[C@@H](O)C4CC4)CC[C@@H]23)C[C@@H](O)C[C@@H]1O [calcipotriol]
